Data published in patent US7880010B2, “Crystalline forms of a dimethylphenyl compound” (Theravance, Inc., priority 2006, dated 2011).

Experiments:
hM2 receptor = target: T1, hM2 receptor (Homo sapiens, UniProt P08172); experiment: Blockade of agonist-mediated [35S]GTPγS binding (Assay B); assay type: biochemical; conditions: CHO-K1 cells expressing the hM2 receptor
T1 construct: expressed in transfected cells; host or cells: CHO / CHO-K1
T1 sequence (P08172 1-466): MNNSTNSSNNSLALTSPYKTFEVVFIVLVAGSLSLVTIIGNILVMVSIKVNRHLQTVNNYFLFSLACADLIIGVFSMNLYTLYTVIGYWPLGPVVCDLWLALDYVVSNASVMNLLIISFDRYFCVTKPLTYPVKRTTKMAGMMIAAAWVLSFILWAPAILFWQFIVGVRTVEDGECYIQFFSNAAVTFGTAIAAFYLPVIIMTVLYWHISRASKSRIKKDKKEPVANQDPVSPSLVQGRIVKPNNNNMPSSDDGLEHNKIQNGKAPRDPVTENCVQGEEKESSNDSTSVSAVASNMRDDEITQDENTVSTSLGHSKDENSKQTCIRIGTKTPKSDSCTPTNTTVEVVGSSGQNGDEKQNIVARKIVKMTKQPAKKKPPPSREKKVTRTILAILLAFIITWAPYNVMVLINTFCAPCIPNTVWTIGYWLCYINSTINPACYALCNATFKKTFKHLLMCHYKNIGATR
Protocol: In this functional assay, the functional potency of a test compound as an antagonist of the hM2 receptor was determined by measuring the ability of the test compound to block oxotremorine-stimulated [^35S]GTPγS binding in CHO-K1 cells expressing the hM2 receptor.
At the time of use, frozen membranes were thawed and then diluted in assay buffer with a final target tissue concentration of 5 to 10 μg protein per well. The membranes were briefly homogenized using a Polytron PT-2100 tissue disrupter and then added to the assay plates.
The EC90 value (effective concentration for 90% maximal response) for stimulation of [^35S]GTPγS binding by the agonist oxotremorine was determined in each experiment.
To determine the ability of a test compound to inhibit oxotremorine-stimulated [^35S]GTPγS binding, the following was added to each well of 96 well plates: 25 μL of assay buffer with [^35S]GTPγS (0.4 nM), 25 μL of oxotremorine(EC90) and GDP (3 uM), 25 μL of diluted test compound and 25 μL CHO cell membranes expressing the hM2 receptor. […] Microscint-20 scintillation liquid (50 μL) was added to each well, and each plate was sealed and radioactivity counted on a Topcounter (PerkinElmer). Data were analyzed by nonlinear regression analysis with the GraphPad Prism Software package (GraphPad Software, Inc., San Diego, Calif.) using the non-linear regression, one-site competition equation. […]

cM5 receptor = experiment: Blockade of agonist-mediated calcium release via FLIPR (Assay C); assay type: cell-based; conditions: CHO cells stably expressing cM5
Protocol: (§1) In this functional assay, the functional potency of a test compound as an antagonist of hM1, hM3 and […] receptors was determined by measuring the ability of the test compound to inhibit agonist-mediated increases in intracellular calcium.
(§2) CHO cells stably expressing the receptors were seeded into 96-well FLIPR plates the night before the assay was done. Seeded cells were washed twice with FLIPR buffer (10 mM HEPES, pH 7.4, 2 mM calcium chloride, 2.5 mM probenecid in Hank's Buffered Salt Solution (HBSS) without calcium and magnesium) using Cellwash (MTX Labsystems, Inc.) to remove growth media. After washing, each well contained 50 μL of FLIPR buffer. The cells were then incubated with 50 μL/well of 4 μM FLUO-4AM (a 2× solution was made) for 40 minutes at 37° C., 5% carbon dioxide. Following the dye incubation period, cells were washed two times with FLIPR buffer, leaving a final volume of 50 μL in each well.
(§3) The dose-dependent stimulation of intracellular Ca^2+ release for oxotremorine was determined so that the test compound could be measured against oxotremorine stimulation at an EC90 concentration. Cells were first incubated with compound dilution buffer for 20 minutes and then oxotremorine was added. […]
(§4) The parameters used for the FLIPR were: exposure length of 0.4 seconds, laser strength of 0.5 watts, excitation wavelength of 488 nm, and emission wavelength of 550 nm. Baseline was determined by measuring the change in fluorescence for 10 seconds prior to addition of oxotremorine. Following oxotremorine stimulation, the FLIPR continuously measured the change of fluorescence every 0.5 to 1 second for 1.5 minutes to capture the maximum fluorescence change.
(§5) The change of fluorescence was expressed as maximum fluorescence minus baseline fluorescence for each well. The raw data was analyzed against the logarithm of test compound concentration by nonlinear regression with GraphPad Prism (GraphPad Software, Inc., San Diego, Calif.) using the built-in model for sigmoidal dose-response. […]

hM3 receptor = target: T2, hM3 receptor (Homo sapiens, UniProt P20309); experiment: as above; assay type: cell-based; conditions: CHO cells stably expressing hM3
T2 construct: expressed in transfected cells; host or cells: CHO
T2 sequence (P20309 whole entry): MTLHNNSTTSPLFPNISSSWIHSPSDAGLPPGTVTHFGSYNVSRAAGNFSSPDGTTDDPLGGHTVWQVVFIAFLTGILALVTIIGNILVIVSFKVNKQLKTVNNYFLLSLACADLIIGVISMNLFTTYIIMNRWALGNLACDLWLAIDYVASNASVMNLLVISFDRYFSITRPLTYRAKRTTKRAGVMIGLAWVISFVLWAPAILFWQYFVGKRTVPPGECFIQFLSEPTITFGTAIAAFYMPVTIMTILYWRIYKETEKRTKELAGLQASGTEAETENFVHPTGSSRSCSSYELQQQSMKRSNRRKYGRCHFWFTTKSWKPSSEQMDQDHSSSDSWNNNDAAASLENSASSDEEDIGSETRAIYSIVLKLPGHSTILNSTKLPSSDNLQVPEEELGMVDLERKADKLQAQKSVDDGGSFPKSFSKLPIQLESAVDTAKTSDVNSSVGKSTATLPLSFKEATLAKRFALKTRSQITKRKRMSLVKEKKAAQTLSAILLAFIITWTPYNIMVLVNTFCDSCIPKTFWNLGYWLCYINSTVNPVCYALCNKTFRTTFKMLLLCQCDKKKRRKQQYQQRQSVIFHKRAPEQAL
Protocol: as §1, §2, §3, §4, §5

[1] = target: T3, human β2 adrenergic receptor (endogenous, BEAS-2B cells) (Homo sapiens, UniProt P07550); experiment: Whole-cell cAMP Flashplate assay with lung epithelial cell line (BEAS-2B); assay type: cell-based
T3 construct: using a cell line expressing endogenous levels of the β2 adrenergic receptor; host or cells: BEAS-2B human lung epithelial cell line
T3 sequence (P07550 whole entry): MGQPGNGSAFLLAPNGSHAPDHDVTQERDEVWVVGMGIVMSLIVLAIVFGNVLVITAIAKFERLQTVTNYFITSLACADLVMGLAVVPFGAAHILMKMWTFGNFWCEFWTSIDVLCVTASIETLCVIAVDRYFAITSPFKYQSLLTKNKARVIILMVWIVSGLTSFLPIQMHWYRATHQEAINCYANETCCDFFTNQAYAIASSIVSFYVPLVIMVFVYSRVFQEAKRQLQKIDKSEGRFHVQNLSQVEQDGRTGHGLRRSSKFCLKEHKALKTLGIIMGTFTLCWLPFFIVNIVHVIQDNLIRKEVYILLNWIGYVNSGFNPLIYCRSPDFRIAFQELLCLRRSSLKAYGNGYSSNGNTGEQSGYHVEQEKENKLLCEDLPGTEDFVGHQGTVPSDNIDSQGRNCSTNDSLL
Protocol: In this assay, the agonist potency and intrinsic activity of a test compound were determined using a cell line expressing endogenous levels of the β2 adrenergic receptor.
On the day of the assay, cells were rinsed with PBS, lifted by scraping with 5 mM EDTA in PBS, and counted. Cells were pelleted by centrifugation at 1,000 rpm and re-suspended in stimulation buffer pre-warmed to 37° C. at a final concentration of 600,000 cells/mL. Cells were used at a final concentration of 100,000 to 120,000 cells/well in this assay. […] Test compounds were tested in the assay at 11 different concentrations, ranging from 10 μM to 10 pM. Reactions were incubated for 10 min at 37° C. and stopped by addition of 100 μL of ice-cold detection buffer. Plates were sealed, incubated over night at 4° C. and counted the next morning in a Topcount scintillation counter (Packard BioScience Co., Meriden, Conn.). […] Data were analyzed by nonlinear regression analysis with the GraphPad Prism Software package (GraphPad Software, Inc., San Diego, Calif.) using the 4-parameter model for sigmoidal dose-response.

- Kobs for blockade of oxotremorine-stimulated [35S]GTPγS binding (hM2 receptor): less than 10 nM
- Kobs for blockade of agonist-mediated calcium release (hM3 receptor): less than 10 nM
- EC50 ([1]; cAMP): < 0.01 µM
- intrinsic activity ([1]; compared with full β2 agonist isoproterenol (1.0)): greater than 0.3
Compound: Cc1cc(NC(=O)CCN2CCC(OC(=O)Nc3ccccc3-c3ccccc3)CC2)c(C)cc1CNC[C@H](O)c1ccc(O)c(NC=O)c1 [compound of formula I, biphenyl-2-ylcarbamic acid 1-[2-(4-{[(R)-2-(3-formylamino-4-hydroxyphenyl)-2-hydroxyethylamino]methyl}-2,5-dimethylphenylcarbamoyl)ethyl]-piperidin-4-yl ester]
- Kobs for blockade of agonist-mediated calcium release (cM5 receptor): less than 10 nM
